Laboratory results: the supplement of paper PMC10307832

Legend:
Experiment in all cases: relative viability (nuclei count vs DMSO), 5 days (fraction); higher = more cells survive
[1] = compound: Cc1ccc(F)c(NC(=O)Nc2ccc(-c3cccc4[nH]nc(N)c34)cc2)c1 [Linifanib] + CCNC(=O)c1noc(-c2cc(C(C)C)c(O)cc2O)c1-c1ccc(CN2CCOCC2)cc1 [Luminespib] (partner 0.01 µM)
Summary of the method: (§1)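 After 5 days of treatment, lung cancer cells in 1536-well plates were fixed and stained in a single step (final 0.05% Triton X-100, 1% formaldehyde, 1 ug/ml Hoechst) and their nuclei counted on 4× images. Treatment had been applied by pin tool the day after seeding as one drug alone or as a fixed anchor-drug dose with five library-drug doses (not always all listed) in √10 steps. Relative viability is the nuclei count of treated wells divided by that of vehicle wells, and values are medians of duplicate plates.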

[2] = compound: Cc1ccc(F)c(NC(=O)Nc2ccc(-c3cccc4[nH]nc(N)c34)cc2)c1 [Linifanib] + Cc1nc(NC(=O)N2CCC[C@H]2C(N)=O)sc1-c1ccnc(C(C)(C)C(F)(F)F)c1 [Alpelisib] (partner 2 µM)
Summary of the method: as §1

[3] = compound: Cc1ccc(F)c(NC(=O)Nc2ccc(-c3cccc4[nH]nc(N)c34)cc2)c1 [Linifanib] + COc1cccc2cc(-c3nc([C@H]4CC[C@H](C(=O)O)CC4)n4ncnc(N)c34)[nH]c12 [OSI-027] (partner 0.5 µM)
Summary of the method: as §1

| Cell Line | relative viability ([1]; first compound 0.03162 µM) | relative viability ([1]; first compound 0.1 µM) | relative viability ([1]; first compound 0.3162 µM) | relative viability ([2]; first compound 0.03162 µM) | relative viability ([2]; first compound 0.1 µM) | relative viability ([2]; first compound 0.3162 µM) | relative viability ([3]; first compound 0.03162 µM) | relative viability ([3]; first compound 0.1 µM) | relative viability ([3]; first compound 0.3162 µM) |
| --- | --- | --- | --- | --- | --- | --- | --- | --- | --- |
| NCI-H661 | 0.922 | 0.907 | 0.926 | 0.647 | 0.787 | 0.515 | 0.726 | 0.714 | 0.647 |
| NCI-H727 | 0.312 | 0.292 | 0.358 | 0.613 | 0.6 | 0.483 | 0.642 | 0.635 | 0.722 |
| NCI-H838 | 0.373 | 0.285 | 0.267 | 0.903 | 1.07 | 0.932 | 0.393 | 0.429 | 0.397 |
| NCI-H1355 | 0.777 | 0.672 | 0.648 | 0.81 | 0.823 | 0.794 | 0.418 | 0.497 | 0.434 |
| NCI-H1395 | 0.684 | 0.824 | 0.622 | 1.2 | 1.02 | 1.08 | 0.611 | 0.756 | 0.573 |
| NCI-H1437 | 1.12 | 1.17 | 1.04 | 1.02 | 0.999 | 0.868 | 0.881 | 0.895 | 0.908 |
| NCI-H1650 | 0.2 | 0.188 | 0.205 |  |  |  | 0.752 | 0.78 | 0.585 |
| NCI-H1651 | 0.945 | 0.748 | 0.797 | 0.883 | 0.838 | 0.996 | 0.624 | 0.8 | 0.829 |
| NCI-H1666 | 1.03 | 1.04 | 0.999 | 0.951 | 1.15 | 1.1 | 0.882 | 0.903 | 0.784 |
| NCI-H1734 | 0.223 | 0.216 | 0.174 | 0.748 | 0.773 | 0.679 | 0.597 | 0.618 | 0.53 |
| NCI-H1755 | 0.586 | 0.599 | 0.447 | 0.966 | 0.963 | 0.833 | 0.753 | 0.827 | 0.669 |
| NCI-H1792 | 0.331 | 0.353 | 0.464 | 0.631 | 0.738 | 0.776 | 0.526 | 0.701 | 0.663 |
| NCI-H1793 | 0.169 | 0.173 | 0.199 | 0.664 | 0.763 | 0.681 | 0.254 | 0.296 | 0.267 |
| NCI-H1915 | 0.826 | 0.804 | 0.679 | 1.08 | 1.08 | 1.06 | 0.668 | 0.688 | 0.616 |
| NCI-H1944 | 0.67 | 0.727 | 0.733 | 0.846 | 0.848 | 0.695 | 0.405 | 0.462 | 0.409 |
| NCI-H1975 | 0.202 | 0.139 | 0.251 | 0.631 | 0.715 | 0.65 | 0.675 | 0.753 | 0.706 |
| NCI-H1993 | 0.864 | 0.933 | 1.03 | 0.628 | 0.711 | 0.646 | 0.495 | 0.552 | 0.61 |

| Cell Line | relative viability ([1]; first compound 0.03162 µM) | relative viability ([1]; first compound 0.1 µM) | relative viability ([1]; first compound 0.3162 µM) | relative viability ([2]; first compound 0.03162 µM) | relative viability ([2]; first compound 0.1 µM) | relative viability ([2]; first compound 0.3162 µM) | relative viability ([3]; first compound 0.03162 µM) | relative viability ([3]; first compound 0.1 µM) | relative viability ([3]; first compound 0.3162 µM) |
| --- | --- | --- | --- | --- | --- | --- | --- | --- | --- |
| NCI-H2009 | 1.03 | 1.05 | 0.965 | 1.16 | 1.19 | 1.08 | 0.705 | 0.673 | 0.644 |
| NCI-H2023 | 0.7 | 0.925 | 0.757 | 0.585 | 0.598 | 0.564 | 0.426 | 0.539 | 0.37 |
| NCI-H2085 | 0.4 | 0.481 | 0.384 | 0.923 | 1.13 | 0.916 | 0.842 | 0.733 | 0.758 |
| NCI-H2087 | 0.175 | 0.193 | 0.171 | 1.28 | 1.17 | 1.03 | 0.643 | 0.585 | 0.563 |
| NCI-H2126 | 0.896 | 0.967 | 0.91 | 0.791 | 0.793 | 0.765 | 0.742 | 0.747 | 0.665 |
| NCI-H2170 | 0.686 | 0.844 | 0.741 | 0.787 | 0.875 | 0.776 | 0.655 | 0.747 | 0.732 |
| NCI-H2228 | 0.15 | 0.155 | 0.17 | 0.821 | 0.827 | 0.843 | 0.647 | 0.747 | 0.663 |
| NCI-H2347 | 0.479 | 0.408 | 0.348 | 1.07 | 1.05 | 1.08 | 0.476 | 0.434 | 0.415 |
| NCI-H2405 | 0.626 | 0.933 | 0.741 | 0.801 | 0.847 | 0.701 | 0.667 | 0.66 | 0.624 |
| NCI-H3122 | 0.0911 | 0.0897 | 0.0958 | 0.761 | 0.783 | 0.786 | 0.947 | 0.989 | 0.995 |
| PC-3 [JPC-3] | 0.744 | 0.731 | 0.579 | 1.05 | 1.02 | 1.04 | 0.702 | 0.771 | 0.659 |
| PC-14 | 0.201 | 0.197 | 0.147 | 0.907 | 0.958 | 0.88 | 0.844 | 1.08 | 0.762 |
| RERF-LC-KJ | 1.3 | 1.28 | 1.25 | 0.888 | 1.04 | 0.75 | 0.572 | 0.654 | 0.616 |
| SK-LU-1 | 0.195 | 0.181 | 0.227 | 0.926 | 0.918 | 1.05 | 0.387 | 0.472 | 0.337 |
| SK-MES-1 | 0.79 | 0.769 | 0.639 | 0.883 | 0.852 | 0.885 | 0.625 | 0.613 | 0.595 |
| SW 1573 | 0.162 | 0.26 | 0.253 | 0.609 | 0.914 | 0.657 | 0.648 | 0.665 | 0.625 |
| UMC-11 | 0.958 | 1.1 | 1.08 | 0.945 | 1.15 | 0.99 | 0.446 | 0.465 | 0.45 |
